Results taken from patent publication US20250295668A1, “METHODS FOR INDUCING COLANIC ACID BIOSYNTHESIS” (priority 2024, published 2025).

How the values were obtained:
cps operon = experiment: Disk diffusion assay for cps induction, SG20781 cpsB::lacZ reporter; type: cell-based, E. coli; conditions: SG20781, filter paper disks 10 or 100 μg, 24 hours at 37° C.
Description: For antibiotic screening targeting cps expression, the SG20781 strain (MC4100 lon+cpsB10::lacZ Mu-immλ) was used. The bacteria were cultured overnight at 37° C. in Luria-Broth (LB) medium and evenly plated on X-gal (40 μg/mL) supplemented LB agar plates, and incubated overnight.
E. coli strain SG20781 was used to assess antibiotic cps induction via disk diffusion as previously described [PMID: 14553918]. In brief, an overnight bacteria culture was spread onto LB agar containing 0.1 mg ml-1 5-bromo-4-chloro-3-indolyl-β-D-galactoside (X-gal). […] The soaked filter papers were placed onto the bacteria-seeding plates and incubated for 24 hours at 37° C.
Certain β-lactam antibiotics trigger the overexpression of the cps operon in E. coli [PMID: 14553918]. To validate this finding, a disk diffusion assay was performed using SG20781, an E. coli strain that harbors a LacZ reporter for the cps operon transcriptional regulation. Using a colorimetric assay, an increased level of […] reacts with X-gal, resulting in an intensified blue coloration as a result of the transcriptional up-regulation of the cps operon.

wildtype E. coli = experiment: Colanic acid measurement (fucose quantification) in wildtype E. coli culture medium; type: cell-based
Description: For colanic acid quantification, E. coli Keio mutants and the parental strain BW25113 were cultured overnight at 37° C. in M9 minimum medium [PMID: 28436966]. Bacteria were then removed by centrifugation and filtered for colanic acid measurement.
The desired bacterial strain was first inoculated and cultured in M9 minimum medium overnight at 37° C. to obtain the seeding culture. The OD 600 was measured, and the seeding bacteria were diluted to OD600=0.02 in M9 minimum medium for another 16 hours. After the incubation, bacterial cultures were collected in 50 mL tubes, spun down at 4,000 g at 4° C. for 30 min, filtered, and 25 mL of supernatant was collected per 50 ml conical tube. Ice-cold 100% ethanol (EtOH) was added to make a final 50% EtOH solution for precipitation, and the mixture was kept at 4° C. overnight. Once precipitation occurred, the liquid was carefully removed after centrifugation at 4,000 g at 4° C. for 50 min. The pellet was washed once with cold 80% EtOH and then air-dried in a hood. The pellet from every 50 mL culture was resuspended in 500 μL distilled H2O. The solution was sonicated for 60 minutes at 37° C., followed by centrifugation at 4000 g at 4° C. for 10 minutes. A 200 μL sample was mixed with 30 μL hydrochloric acid (320331-500 mL, Sigma-Aldrich) and boiled for 2 hours. Subsequently, 60 μL 5M NaOH and 150 μL NaHCO3/NaOH buffer were added to reach a pH of 6-8, calibrated by 1M HCl or NaOH solutions. The fucose quantification assay was then carried out using a K-FUCOSE kit (Megazyme) according to the manufacturer's protocol.
Next, colanic acid in the bacteria culture medium was quantified via monosaccharide-fucose-from acid-hydrolyzed polysaccharide precipitates. […] Calculations were performed to determine the equivalent dosage by weight in a mammalian subject. Briefly, a typical mouse consumes 5-10 ml of water per day and weighs between 30-40 g. Using the 1.8 μg/mL concentration, a lower bound of 0.225 mg/kg (0.0018 mg/mL×5 ml[…]0.04 kg) and a higher bound of 0.6 mg/kg (0.0018 mg/mL×10 ml÷0.03 kg) were identified. […] In wild-type bacteria treated with cephaloridine and Alon E. coli mutants colanic acid production increased during the exponential growth phase and remained elevated in the stationary phase (FIG. 1D).

PBP4 = PBP4 (Escherichia coli, UniProt P24228); conditions: literature, PMID 25733506; cited from earlier work

CC1(C)S[C@@H]2[C@H](NC(=O)Cc3ccccc3)C(=O)N2[C@H]1C(=O)O [penicillin G]
cps induction (blue coloration) (cps operon): promote various shades of blue coloration | colanic acid production vs untreated wildtype control (wildtype E. coli; penicillin G 5 μg/mL): 3.25 fold | affinity for PBP4 (PBP4): higher affinity for PBP4

CO/N=C(\C(=O)N[C@@H]1C(=O)N2C(C(=O)O)=C(COC(N)=O)CS[C@H]12)c1ccco1 [cefuroxime]
cps induction (blue coloration) (cps operon): promote various shades of blue coloration

CC1(C)S[C@@H]2[C@H](NC(=O)[C@H](N)c3ccccc3)C(=O)N2[C@H]1C(=O)O [ampicillin]
cps induction (blue coloration) (cps operon): promote various shades of blue coloration | affinity for PBP4 (PBP4): higher affinity for PBP4

Cc1nnc(SCC2=C(C(=O)O)N3C(=O)[C@@H](NC(=O)Cn4cnnn4)[C@H]3SC2)s1 [cefazolin]
cps induction (blue coloration) (cps operon): promote various shades of blue coloration

CC(=O)OCC1=C(C(=O)O)N2C(=O)[C@@H](NC(=O)Cc3cccs3)[C@H]2SC1 [cephalothin]
cps induction (blue coloration) (cps operon): promote various shades of blue coloration | colanic acid production vs untreated wildtype control (wildtype E. coli; cephalothin 0.625 μg/mL): 3.5 fold

CC1(C)S[C@@H]2[C@H](NC(=O)C(C(=O)O)c3ccccc3)C(=O)N2[C@H]1C(=O)O (stereo partly shown) [carbenicillin]
cps induction (blue coloration) (cps operon): promote various shades of blue coloration
